We go through 10 compounds from patent publication US6576638B1, “Use of substance P antagonists in the treatment of the adenocarcinomas” (Biopolis S.p.A., priority 1999, dated 2003).

Where no end group is shown, it is not given here.

Assay [1] has as its system PC-3 human prostatic cancer cell lines. The assay can be described thus: Vascular density quantification (CD31 immunohistochemistry) in orthotopic PC-3 prostate tumors in nude mice. It is filed as in vivo, male athymic nude mices. As to conditions: compared to control groups (L-703,606 also vs SP treated mice); p<0.05; 1 ng up to 1 mg; three up to 180 days. As for the experimental part: (§1) For this studies has been used male athymic nude mices (Harlan). The mices were housed in laminar flow cabinet under pathogenic free conditions and used at 4-5 weeks of age.
(§2) The PC-3 human prostatic cancer cell lines (ECACC) were mantained in Minimum essential medium (GIBCO BRL) For in vivo studies, tumor cells in exponential growth phase were harvested by a 120 seconds treatment with tripsyn in 0.02% EDTA. After that the cells were resuspended in saline solution. 20 μl (10^5 cells) of saline solution was inoculated in nude mice prostate. The tumors were taken at different times (three up to 180 days) for analysis.
(§3) Animals were divided in groups (10 animals each one) and treated with different solutions:
(§4) physiological solution, -Sustance P (1 ng up to 1 mg), -L-703,606 (1 ng up to 1 mg), −L-703,606+Leuprolide Acetate (using dosages reported in table 1 and 2).
(§5) The treatments were made at different time (one at day until one at week). For different periods of time (three days up to 180 days).
Frozen sections of tumors have been fixed in Acetone, acetone/chloroform, acetone.
The presence of new blood vessels has been highlighted using the Rat anti-Mouse CD31 antibody, a Goat anti-Rat POX as a secondary antibody and DAB as a chromogen substrate. For quantification of blood vessels an image analysis system was employed.

Assay [2] has the same test system. The assay can be described thus: Tumoral mass weight of orthotopic PC-3 prostate tumors in nude mice. It counts as in vivo, male athymic nude mices. As to conditions: compared to either control groups or SP treated mice; p<0.05; from 3 up to 180 days. The procedure: as §1, §2, §3, §4, §5
The animals were maitained under observation for three up to 180 days. Autoptic examinations were performed in all animals and the tumoral mass weighed.

In assay [3] the target is T1, NK-1 receptor (Rattus norvegicus, UniProt P14600).
T1 construct: pA2>6.0 both in murine and human tissues; host or cells: rat ('murine') tissues (not specified)
T1 sequence (P14600 whole entry): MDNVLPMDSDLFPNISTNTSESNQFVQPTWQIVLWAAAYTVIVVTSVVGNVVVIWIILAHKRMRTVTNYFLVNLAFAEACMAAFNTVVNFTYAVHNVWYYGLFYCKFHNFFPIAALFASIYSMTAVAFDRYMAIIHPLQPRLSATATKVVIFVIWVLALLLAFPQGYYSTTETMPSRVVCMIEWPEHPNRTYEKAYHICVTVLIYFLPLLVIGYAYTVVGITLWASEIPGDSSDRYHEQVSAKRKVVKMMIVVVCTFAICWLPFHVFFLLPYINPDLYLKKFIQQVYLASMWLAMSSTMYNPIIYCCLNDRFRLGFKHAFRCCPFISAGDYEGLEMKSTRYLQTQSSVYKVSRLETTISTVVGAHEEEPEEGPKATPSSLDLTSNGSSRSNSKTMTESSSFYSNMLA
The conditions noted are these: rat tissues; cited from earlier work.

For assay [4], the target named is T2, NK-1 receptor (Homo sapiens, UniProt P25103).
T2 construct: pA2>6.0 both in murine and human tissues; host or cells: human tissues (not specified)
T2 sequence (P25103 whole entry): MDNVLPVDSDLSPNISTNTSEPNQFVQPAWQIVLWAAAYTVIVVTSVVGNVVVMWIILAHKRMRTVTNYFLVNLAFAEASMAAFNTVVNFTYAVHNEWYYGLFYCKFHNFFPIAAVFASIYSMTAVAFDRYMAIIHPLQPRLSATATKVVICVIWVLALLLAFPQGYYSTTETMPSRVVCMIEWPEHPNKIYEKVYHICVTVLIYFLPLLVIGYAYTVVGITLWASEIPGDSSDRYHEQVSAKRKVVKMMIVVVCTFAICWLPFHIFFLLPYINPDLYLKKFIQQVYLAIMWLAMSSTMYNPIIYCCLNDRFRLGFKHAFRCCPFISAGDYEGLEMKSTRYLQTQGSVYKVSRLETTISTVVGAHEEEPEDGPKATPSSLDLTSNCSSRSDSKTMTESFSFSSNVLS
As to conditions: human tissues; cited from earlier work.

As to `Ic1ccccc1CN[C@@H]1C2CCN(CC2)[C@@H]1C(c1ccccc1)c1ccccc1` (racemic) [L-703,606], in assay [1], the “CD 31 values (blood vessels density)” value is “statistically significant reduction”. Further, the tumoral mass weight result in assay [2] is recorded as “statistically significant reduction”.
For `CC(C)Oc1cccc(CC(=O)N2CCC[C@](CC[N+]34CCC(c5ccccc5)(CC3)CC4)(c3ccc(Cl)c(Cl)c3)C2)c1` [SR 140333], at NK-1 receptor [3], the pA2 rat is 7.4. Besides, the pA2 human on NK-1 receptor [4] is reported as 9.8.
Consider `Cc1ccc(CC(=O)N(C)[C@H](Cc2ccc3ccccc3c2)C(=O)N[C@@H]2CCCC[C@@H]2NC(=O)c2c[nH]c3ccccc23)cc1` [MEN 11467], for which, on NK-1 receptor [3], the pA2 rat is reported as more than 6.0. Also, the pA2 human on NK-1 receptor [4] is recorded as more than 6.0.
As to `COc1ccccc1CN[C@H]1CCCN[C@H]1c1ccccc1` [CP 99994], the pA2 rat at NK-1 receptor [3] is reported as 6.1. For the same compound, the pA2 human on NK-1 receptor [4] is 8.9.
As to `COc1ccccc1CN[C@H]1C2CCN(CC2)[C@H]1C(c1ccccc1)c1ccccc1` [CP 96345], the pA2 rat at NK-1 receptor [3] is on record as 6.8. Moreover, the pA2 human at NK-1 receptor [4] is listed as 9.5.
As to `Cc1cc(C)cc(C(=O)N2CC[C@H](NCCc3ccccc3)C[C@H]2Cc2ccccc2)c1` [CGP 47899], the pA2 rat on NK-1 receptor [3] was more than 6.0. The pA2 human at NK-1 receptor [4] is more than 6.0.
With `COc1ccccc1CC(=N)N1C[C@@H]2C(=O)CCC(c3ccccc3)(c3ccccc3)[C@@H]2C1` [RP 67580], the pA2 rat at NK-1 receptor [3] was 8.2. The pA2 human at NK-1 receptor [4] is 7.2.
Take `COc1ccc(-n2nnnc2C(F)(F)F)cc1CN[C@H]1CCCN[C@H]1c1ccccc1` [GR 205171]: the pA2 rat at NK-1 receptor [3] is given as more than 6.0. For the same compound, at NK-1 receptor [4], the pA2 human was more than 6.0.
For the compound `CN(Cc1ccccc1)C(=O)[C@H](Cc1ccc2ccccc2c1)NC(=O)[C@@H]1C[C@@H](O)CN1C(=O)c1cn(C)c2ccccc12` [FK 888], the pA2 rat at NK-1 receptor [3] was 6.0. Besides, on NK-1 receptor [4], the pA2 human is listed as 9.1.
For the compound “substance P (RPKPQQFFGLM; ends and bridges not checked; UniProt P20366 58-68, looked up) [SP, substance P (SP), plays a role in angiogenesis stimulation]”, the “CD 31 values (blood vessels density)” value in assay [1] is “statistically significant increase”.
